Assay results published in US6156798A, “Cyclobutyl-aryloxyarylsulfonylamino hydroxamic acid derivatives” (Pfizer Inc, priority 1999, dated 2000).

What was measured:
MMP-13 = MMP-13 (Homo sapiens, UniProt P45452); experiment: Inhibition of MMP-13; assay type: biochemical; conditions: human recombinant MMP-13, fluorogenic substrate 10 μM
Experimental: Human recombinant MMP-13 is activated with 2 mM APMA (p-aminophenyl mercuric acetate) for 1.5 hours, at 37° C. and is diluted to […] in assay buffer (50 mM Tris, pH 7.5, 200 mM sodium chloride, 5 mM calcium chloride, 20 μM zinc chloride, 0.02% brij). Twenty-five microliters of diluted enzyme is added per well of a 96 well microfluor plate. The enzyme is then diluted in a 1:4 ratio in the assay by the addition of inhibitor and substrate to give a final concentration in the assay of […].
10 mM stock solutions of inhibitors are made up in dimethyl sulfoxide and then diluted in assay buffer as per the inhibitor dilution scheme for inhibition of human collagenase (MMP-1): Twenty-five microliters of each concentration is added in triplicate to the microfluor plate. The final concentrations in the assay are 30 μM, 3 μM, 0.3 μM, and 0.03 μM.
Substrate (Dnp-Pro-Cha-Gly-Cys(Me)-His-Ala-Lys(NMA)-NH2) is prepared as for inhibition of human collagenase (MMP-1) and […] is added to each well to give a final assay concentration of 10 μM. Fluorescence readings (360 nm excitation; 450 emission) are taken at time 0 and every 5 minutes for 1 hour.
Positive controls consist of enzyme and substrate with no inhibitor and blanks consist of substrate only.
IC50 's are determined as per inhibition of human collagenase (MMP-1). […]

MMP-1 = target: T1, MMP-1 (Homo sapiens, UniProt P03956); experiment: Inhibition of Human Collagenase (MMP-1); assay type: biochemical; conditions: human recombinant collagenase, fluorogenic substrate 10 μM, room temperature
T1 sequence (P03956 100-469): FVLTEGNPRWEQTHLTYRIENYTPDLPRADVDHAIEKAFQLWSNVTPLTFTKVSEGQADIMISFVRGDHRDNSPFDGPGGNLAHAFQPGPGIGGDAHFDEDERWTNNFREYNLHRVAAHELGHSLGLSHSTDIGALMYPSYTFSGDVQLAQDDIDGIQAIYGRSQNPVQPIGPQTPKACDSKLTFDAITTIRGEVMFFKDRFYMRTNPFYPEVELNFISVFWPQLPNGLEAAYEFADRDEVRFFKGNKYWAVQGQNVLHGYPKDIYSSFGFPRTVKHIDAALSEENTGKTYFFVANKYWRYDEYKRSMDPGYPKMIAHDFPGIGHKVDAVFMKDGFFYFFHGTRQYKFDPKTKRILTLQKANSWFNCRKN
Experimental: Biological Assay Inhibition of Human Collacienase (MMP-1)
Human recombinant collagenase is activated with trypsin using the following ratio: 10 μg trypsin per 100 μg of collagenase. The trypsin and collagenase are incubated at room temperature for 10 minutes then a five fold excess (50 μg/10 μg trypsin) of soybean trypsin inhibitor is added.
10 mM stock solutions of inhibitors are made up in dimethyl sulfoxide and then dilute using the following Scheme:
Twenty-five microliters of each concentration is then added in triplicate to appropriate wells of a 96 well microfluor plate. The final concentration of inhibitor will be a 1:4 dilution after addition of enzyme and substrate. Positive controls (enzyme, no inhibitor) are set up in wells D1-D6 and blanks (no enzyme, no inhibitors) are set in wells D7-D12.
Collagenase is diluted to 400 ng/ml and 25 μl is then added to appropriate wells of the microfluor plate. Final concentration of collagenase in the assay is 100 ng/ml. […]
Fluorescence readings (360 nm excitation, 460 nm emission) were taken at time 0 and then at 20 minute intervals. […]
Fluorescence vs time is then plotted for both the blank and collagenase containing samples (data from triplicate determinations is averaged). […] Data is plotted as inhibitor concentration vs % control (inhibitor fluorescence divided by fluorescence of collagenase alone×100). […]

IC50 (MMP-13) [nM] | IC50 (MMP-1) [nM] | Structure (SMILES)
0.6 | 90 | O=C(O)CCN(C1(C(=O)NO)CCC1)S(=O)(=O)c1ccc(Oc2ccc(F)cc2)cc1 [1 (R^1 = H), 3-[[4-(4-Fluorophenoxy)phenylsulfonyl]-1[(N-hydroxycarbamoyl)cyclobutyl]amino]propionic acid]
0.6 | 18 | CCOC(=O)CCN(C1(C(=O)NO)CCC1)S(=O)(=O)c1ccc(Oc2ccc(F)cc2)cc1 [1 (R^1 = ethyl), Ethyl 3-[[4-(4-fluorophenoxy)phenylsulfonyl]-1-[(N-hydroxycarbamoyl)cyclobutyl]amino]propionate]
